Experimental data published in patent US20160375057A1, “THERAPEUTIC COMPOSITIONS AND METHODS INVOLVING CELL-PERMEABLE IRON” (priority 2015, published 2016).
Like-named read-outs stand apart in the source and are kept apart here.

Tests used:
[1] = system: MDA-MB-231-luc triple negative breast cancer cell line; conditions: 100 μM FAC alone without radiation, five days
Procedure: FIG. 12. […] Triple negative breast cancer cell line, MDA-MB-231-luc, was exposed to different doses of ionizing radiation (X-Ray) in the presence and absence of 100 μM FAC. Sets of cultures seeded at the same cell density were kept as a control for radiation-induced cell death.
500,000 highly metastatic human breast cancer cells (MDA-MB-231-luc, Caliper Life Sciences, PerkinElmer Inc., Hopkinton, Mass.) were seeded into six-well plates in RPMI-1640 medium (3.0 ml) supplemented with 10% fetal bovine serum and antibiotics. After four hours to allow cell attachment, sets of cultures were treated with 100 μM FAC. Equal volume of complete medium was added to control cultures. One of the plates was kept aside without any radiation. Other sets of cultures were exposed to ionizing radiation (X-ray) of varying doses. After radiation, cells were cultures for five days. Live cells were stained with Hoechest 33342 dye and photographed under UV light.

[2] = system: Lewis Lung Carcinoma (LLC) MATRIGEL plugs, tumor blood vessels (CD31)
Procedure: FIG. 11. […] Tumor cells were injected into groups of mice subcutaneously in […] plugs. […] Histograms show mean levels of blood vessel length and branch points.
In another aspect, this disclosure describes methods of inhibiting angiogenesis in a subject. Generally, the methods involve co-administering cell-permeable iron and an anti-angiogenic chemotherapeutic agent. […] (FIG. 7).
One million LLC cells (in PBS) were mixed with […] (Corning, Inc., Corning, N.Y.) in a 3:1 ratio and injected subcutaneously into the dorsal flanks (bilateral sites) of 6-8 week old female C57BL/6 wild-type mice. Experimental […] plugs contained 200 μM FAC. Four days later, mice were treated with either saline (negative control) or 20 mg/kg FAC (in PBS) on alternate days for two weeks. After two weeks, mice were sacrificed, tumor plugs removed and photographed, a part of the […] plugs was snap-frozen, and another part of the […] plugs was fixed in 10% neutral formalin. Frozen tumor plugs (n=5 for saline and n=7 for FAC) were sectioned (15 μm), fixed with acetone at −20° C. for 10 minutes, rehydrated, and blocked in 1% BSA. Slides were then stained with PE-conjugated anti-mouse CD31 (1:100) overnight at 4° C., washed three times with PBS, stained with FITC-conjugated anti-alpha-SMA (1:500) for one hour at room temperature and counterstained with DAPI. Two sections per tumor plug were stained. Random areas (5-20) were imaged at 10× magnification using a Nikon AZ 100M Fluorescence Macro scope and at 20× magnification using a Leica DM5500 B microscope. CD31 vessel length and branching points (nodes) were quantified by morphometric analyses of fluorescent digital images using Reindeer Games plug-in functions for Adobe Photoshop, as previously described (Wild et al., 2000, Microvac Res 59(3):368-376). CD31 positive vessels co-staining with alpha- SMA were quantified similarly to quantitate mature vessels. Data in FIG. 11 show representative images of tumor sections stained with rat anti-mouse CD31-phycoerythrin conjugate.

Burkitt's lymphoma cells = test: Lymphoma cell growth in vitro, FAC versus FC (FIG. 14); assay type: cell-based
Procedure: FIG. 14. […]. Burkitt's lymphoma cells were treated with either ferric ammonium citrate (FAC) or ferric citrate (FC). […]

HUVECs = conditions: FAC 200 μM for 24 hours, complete medium, eight hours recording
Procedure: HUVECs were plated in 60 mm plates and allowed to grow and attach for 24 hours. Subsequently, one plate was treated with FAC 200 μM for 24 hours. Control and treated cells were trypsinized and 50,000 live cells were plated in 8 well (8W10E) electric cell substrate impedance sensing plate (ECIS, Applied BioPhysics, Inc., Troy, N.Y.). Cell attachment and spreading was confirmed by measuring electrical impedance. After reaching stable values of impedance in ohms, a clear wound of 250 micrometer was generated by applying elevated electrical pulse to the defined electrode. Wounded area is clear of cells and confirmed by a decrease in impedance. Cell movement into the wounded areas was recorded for eight hours at 15 minute intervals. Cell migration into the wounded area increases impedance and was continually recorded over a period of eight hours (FIG. 10). Error bars represent standard deviation (SD).

[3] = system: A2780 ovarian cancer cells; test: Synergy of carboplatin and FAC, CCK-8 IC50 isobologram (Example 3, FIG. 3); conditions: read-out: IC50 (50% cell viability); agent alone, 48-hour treatment, CCK-8, A2780
Procedure: In these experiments, varying concentrations of the two reagents are added to tumor cells in an array format. Cytotoxicity was determined by CCK8 assay after 24 hours.
A2780 ovarian cancer cells were seeded into 96-well plates. […] Cell viability was determined by CCK-8 kit after 48-hour treatment with the drugs. […] IC50 values are shown as individual data points.

[4] = system: Burkitt's B-lymphoma cells; conditions: 14 days, 2 cells/well-50 cells/well
Procedure: FIG. 13. […] Burkitt's B-lymphoma cells were treated with FAC at different concentrations. Treated cells grown for 14 days at different cell density (2 cells/well-50 cells/well).

[5] = system: MA148 ovarian cancer cells; test: Synergy of doxorubicin and FAC, CCK-8 viability, Compusyn CI/DRI (Example 5, FIG. 5, Tables 3-4); assay type: cell-based, Human
Procedure: FIG. 5. […] (Chou et al., 2006, Pharmacol Rev 58:621-628).
Subsequently, they were treated with different concentrations of Doxorubicin in the presence or absence of FAC 200 uM. […] Five different combinations of FAC and Doxorubicin were used in this study. […] Values below the dotted line indicate synergy.

[6] = system: MA148 ovarian cancer cells
Procedure: CI, combination index. CI<1.0 indicates synergy. Compusyn program (ComboSyn, Inc., Paramus, N.J.) was used to calculate CI and generate isobologram.
In these experiments, varying concentrations of the two reagents are added to tumor cells in an array format. Cytotoxicity was determined by CCK8 assay after 24 hours. […] An antagonistic effect (competition) would result in hyperbolic (bell-shaped) curve above the dotted line (additive effect).
Cells were allowed to attach for 24 hours after which they were pretreated with FAC 200 μM for 24 hours. […] After 24 hours, CCK-8 (10 μl) was added to each well and one hour later, absorbance at 450 nm was measured. Viability was calculated as percentage of the cells grown in complete medium (FIG. 4). […] Isobologram was generated using Compusyn program (ComboSyn, Inc., Paramus, N.J.). Dotted line is the predicted additive effect between two compounds. Values below the dotted line indicate synergy.

[7] = system: human umbilical vein endothelial cells (HUVEC); conditions: 100 ng/ml VEGF-A
Procedure: Human umbilical vein endothelial cells (HUVECs; Neuromics, Edina, Minn.) and HUVECs immortalized with h-TERT (ATCC CRL-4053, ATCC, Manassas, Va.) were cultured in endothelial cell growth media EGM-2 (Lonza, Basel, Switzerland). Lewis Lung Carcinoma (LLC) cells (ATCC CRL-1642, ATCC, Manassas, Va.) were grown in RPMI 1640 medium supplemented with 10% FBS, 1% glutamine, 1% penicillin-streptomycin and 1% sodium pyruvate. Female C57BL/6 wild-type (WT) mice were used as recipients (bred at the University of Minnesota specific pathogen free environment animal facility). All animals were sex and aged matched (6-8 weeks). All experimental protocols were approved by the University of Minnesota Institutional Animal Care and Use Committee. VEGF-A165 was purchased from R & D Systems (Minneapolis, Minn.). GELTREX Low-growth factor basement membrane matrix (Thermo Fisher Scientific, Inc., Waltham Mass.) was used for in vitro tube formation assay.
HUVEC were plated in 0.2% gelatin coated 96-well plates and allowed to attach for 24 hours. Subsequently they were starved in EBM-2 with 2% serum overnight. […] Cell viability was determined by CCK-8 assay (Dojindo Molecular Technologies, Inc., Rockville, Md.). VEGF-A induced effect was calculated by subtracting negative control values from all experimental groups. Proliferation was then calculated as percentage of the positive control.

[8] = 20 mg/kg FAC on alternate days for two weeks

Molecule: ferric ammonium citrate [FAC]
- cell viability [1]: significant decrease in cell viability
- total vessel length [2, 8]: inhibited
- vessel branches [2, 8]: inhibited
- CD31 positive vessel density ([2]; systemic injection of FAC, compared to mice receiving saline): significantly reduced
- inhibition of lymphoma cell growth (Burkitt's lymphoma cells): effective
- potency relative to ferric citrate at inhibiting lymphoma cell growth (Burkitt's lymphoma cells): more potent than ferric citrate (FC)
- endothelial cell migration (electrical impedance, real time) (HUVECs): inhibits
- IC50 [3]: 200 µM
- colony formation (clonogenic growth) [4]: completely inhibited
- Dose FAC (FAC alone for this Fa) ([5]; Fa 0.88386): 2644.47
- Dose FAC (FAC alone for this Fa) ([5]; Fa 0.95196): 6060.28
- Dose FAC (FAC alone for this Fa) ([6]; Fa 0.24288): 121.297
- Dose FAC (FAC alone for this Fa) ([6]; Fa 0.24359): 121.991
- Dose FAC (FAC alone for this Fa) ([6]; Fa 0.28253): 164.074
- Dose FAC (FAC alone for this Fa) ([6]; Fa 0.29392): 178.068
- Dose FAC (FAC alone for this Fa) ([6]; Fa 0.35541): 269.444
- Dose FAC (FAC alone for this Fa) ([6]; Fa 0.36087): 279.043
- Dose FAC (FAC alone for this Fa) ([6]; Fa 0.49929): 645.092
- Dose FAC (FAC alone for this Fa) ([6]; Fa 0.61254): 1272.12
- Dose FAC (FAC alone for this Fa) ([6]; Fa 0.66880): 1824.65
- Dose FAC (FAC alone for this Fa) ([6]; Fa 0.87322): 11126.4
- inhibition of VEGF-A-induced cell proliferation ([7]; 50 μM FAC, 48 hours): complete inhibition
- inhibition of VEGF-A-induced endothelial cell proliferation ([7]; 200 μM FAC, 24 hours): completely inhibited

Molecule: N.N.O=C([O-])C1(C(=O)[O-])CCC1.[Pt+2] [carboplatin, reference compound]
- IC50 [3]: 150 µM

Molecule: COc1cccc2c1C(=O)c1c(O)c3c(c(O)c1C2=O)C[C@@](O)(C(=O)CO)C[C@@H]3O[C@H]1C[C@H](N)[C@H](O)[C@H](C)O1 [DOX, Doxorubicin, reference compound]
- Dose DOX (DOX alone for this Fa) ([5]; Fa 0.88386): 47050.0
- Dose DOX (DOX alone for this Fa) ([5]; Fa 0.95196): 178095.

Molecule: ferric citrate [FC]
- inhibition of lymphoma cell growth (Burkitt's lymphoma cells): effective
